{"source": "paper PMC8205226", "about": "“HIV-1 Integrase Inhibitors with Modifications That Affect Their Potencies against Drug Resistant Integrase Mutants” (ACS Infectious Diseases, 2021)", "assay_type_in_all_cases": "cell-based", "key": {"HIV-1 IN mutant Y143R": {"tested_on": "HIV-1 IN mutant Y143R", "assay": "single-round infectivity assay, Y143R IN mutant", "protocol": "(§1) Figure 2 Antiviral activities of the new compounds against RAL-resistant mutants. The EC50 values were determined using a vector that carries WT HIV-1 IN and the RAL-resistant mutants in a single round infection assay. […] Error bars represent the standard deviations of independent experiments, n = 4, performed in triplicate. The graph has a maximum value of 550 nM.\n(§2) WT and mutant HIV-1 viral vectors were used in single-round infectivity assays to determine the antiviral potencies (EC50 values) of the compounds and the effects of the mutants on the EC50 values as previously described.[30],[54] Single round infectivity measurements were determined as done previously.[38]\n(§3) The vector pNLNgoMIVR-ΔENV.LUC has been described previously.[26] To produce the new IN mutants used in this study, the IN open reading frame was removed from pNLNgoMIVR-ΔENV.LUC by digestion with KpnI and SalI, and the resulting fragment was inserted between the KpnI and SalI sites of pBluescript KS+. Using that construct as the wild-type template, we prepared the following HIV-1 IN mutants using the QuikChange II XL site directed mutagenesis kit (Agilent Technologies, Santa Clara, CA) protocol: N117A, N117H, P142A, P142H, P142S, Y143C, Y143H, S230R, R231G, and R231K. The following sense oligonucleotides were used with matching cognate antisense oligonucleotides (not shown) (Integrated DNA Technologies, Coralville, IA) in the mutagenesis: N117A, 5′-[…]-3′; N117H, 5′-[…]-3′; P142A, 5′-[…]-3′; P142H, 5′-[…]-3′; P142S, 5′-[…]-3′; Y143C, 5′- […]-3′; Y143H, 5′-[…]-3′; S230R, 5′- […]-3′; R231G, 5′-[…]-3′; R231K, 5′-[…]-3′."}, "HIV-1 IN mutant R231K": {"tested_on": "HIV-1 IN mutant R231K", "assay": "single-round infectivity assay, R231K IN mutant", "protocol": "(§4) Figure 5 Antiviral potencies of the new compounds against IN with mutations in the […]. The EC50 values were determined using a vector that carries the IN mutant in a single round infection assay. […] Error bars represent the standard deviations of independent experiments, n = 4, performed in triplicate.\nas §2, §3"}, "WT HIV-1": {"tested_on": "WT HIV-1", "assay": "single-round infectivity assay, WT HIV-1 IN vector", "conditions": "new compounds", "protocol": "as §1, §2, §3"}, "HIV-1 IN mutant S119R": {"tested_on": "HIV-1 IN mutant S119R", "assay": "single-round infectivity assay, S119R IN mutant", "protocol": "(§5) The EC50 values were determined using a vector that carries the IN mutant in a single round infection assay. […] Error bars represent the standard deviations of independent experiments, n = 4, performed in triplicate.\nas §2, §3"}, "HIV-1 IN mutant P142A": {"tested_on": "HIV-1 IN mutant P142A", "assay": "single-round infectivity assay, P142A IN mutant", "protocol": "(§6) Figure 4 Mutations in the β5-α3 loop affect the antiviral potencies of the new compounds. The EC50 values were determined using a vector that carries the IN mutant in a single round infection assay. […] Error bars represent the standard deviations of independent experiments, n = 4, performed in triplicate.\nas §2, §3"}, "HIV-1 IN mutant P142H": {"tested_on": "HIV-1 IN mutant P142H", "assay": "single-round infectivity assay, P142H IN mutant", "protocol": "as §5\nSingle round infectivity measurements were determined as done previously.[38]\nas §3"}, "HIV-1 IN mutant P142S": {"tested_on": "HIV-1 IN mutant P142S", "assay": "single-round infectivity assay, P142S IN mutant", "protocol": "as §6, §2, §3"}, "HIV-1 IN mutant N117H": {"tested_on": "HIV-1 IN mutant N117H", "assay": "single-round infectivity assay, N117H IN mutant", "protocol": "as §5, §2, §3"}, "HIV-1 IN mutant S230R": {"tested_on": "HIV-1 IN mutant S230R", "assay": "single-round infectivity assay, S230R IN mutant", "protocol": "as §4, §2, §3"}, "HIV-1 IN mutant N117A": {"tested_on": "HIV-1 IN mutant N117A", "assay": "single-round infectivity assay, N117A IN mutant", "protocol": "as §5, §2, §3"}, "HIV-1 IN mutant Y143C": {"tested_on": "HIV-1 IN mutant Y143C", "assay": "single-round infectivity assay, Y143C IN mutant", "protocol": "as §6, §2, §3"}, "[1]": {"tested_on": "HIV-1 IN double mutant G140S/Q148H", "assay": "single-round infectivity assay, G140S/Q148H IN double mutant", "protocol": "as §1, §2, §3"}, "HIV-1 IN mutant N155H": {"tested_on": "HIV-1 IN mutant N155H", "assay": "single-round infectivity assay, N155H IN mutant", "protocol": "as §1, §2, §3"}, "HIV-1 IN mutant R231G": {"tested_on": "HIV-1 IN mutant R231G", "assay": "single-round infectivity assay, R231G IN mutant", "protocol": "as §4, §2, §3"}, "HIV-1 IN mutant Y143H": {"tested_on": "HIV-1 IN mutant Y143H", "assay": "single-round infectivity assay, Y143H IN mutant", "protocol": "as §6, §2, §3"}, "HIV-1 IN mutant G118R": {"tested_on": "HIV-1 IN mutant G118R", "assay": "single-round infectivity assay, G118R IN mutant", "protocol": "as §5, §2, §3"}, "[2]": {"conditions": "fold change in EC50, IN mutant versus WT HIV-1"}}, "note": "Like-named read-outs stand apart in the source and are kept apart here.", "data": [{"smiles": "Nc1c(C(=O)NCc2ccc(F)cc2F)c(=O)n(O)c2ncc(CCS(=O)(=O)CCN3CCOCC3)cc12", "note": "[6v, 4-Amino-N-(2,4-difluorobenzyl)-1-hydroxy-6-(2-((2-morpholinoethyl)sulfonyl)ethyl)-2-oxo-1,2-dihydro-1,8-naphthyridine-3-carboxamide]", "values": [{"measurement": "ratio of the EC50s (our compound relative to DTG) against Y143R", "setting": "HIV-1 IN mutant Y143R; EC50 compound / EC50 DTG", "result": 25.3}, {"measurement": "EC50", "setting": "HIV-1 IN mutant Y143R; Human immunodeficiency virus 1, read-out: EC50 values Y143R", "result": "109 ± 16.2", "unit": "nM"}, {"measurement": "FC Y143R", "setting": "HIV-1 IN mutant Y143R; [2]", "result": 0.4}, {"measurement": "ratio of the EC50s (our compound relative to DTG) against R231K", "setting": "HIV-1 IN mutant R231K; EC50 compound / EC50 DTG", "result": 97.9}, {"measurement": "EC50", "setting": "HIV-1 IN mutant R231K; Human immunodeficiency virus 1, read-out: EC50 values R231K, single round infection, n = 4", "result": "411 ± 58", "unit": "nM"}, {"measurement": "FC R231K", "setting": "HIV-1 IN mutant R231K; [2]", "result": 1.5}, {"measurement": "EC50", "setting": "WT HIV-1; Human immunodeficiency virus 1, read-out: EC50 values WT, vector carrying WT HIV-1 IN, single round infection, n = 4", "result": "268 ± 68.8", "unit": "nM"}, {"measurement": "EC50", "setting": "WT HIV-1; read-out: EC50 values WT, vector carrying WT HIV-1 IN, single round infection, n = 4", "result": "> 250", "unit": "nM"}, {"measurement": "ratio of the EC50s (our compound relative to DTG) against S119R", "setting": "HIV-1 IN mutant S119R; EC50 compound / EC50 DTG", "result": 213.0}, {"measurement": "EC50", "setting": "HIV-1 IN mutant S119R; Human immunodeficiency virus 1, read-out: EC50 values S119R", "result": "490 ± 43.1", "unit": "nM"}, {"measurement": "FC S119R", "setting": "HIV-1 IN mutant S119R; [2]", "result": 1.8}, {"measurement": "ratio of the EC50s (our compound relative to DTG) against P142A", "setting": "HIV-1 IN mutant P142A; EC50 compound / EC50 DTG", "result": 145.9}, {"measurement": "EC50", "setting": "HIV-1 IN mutant P142A; Human immunodeficiency virus 1, read-out: EC50 values P142A", "result": "365 ± 39.4", "unit": "nM"}, {"measurement": "ratio of the EC50s (our compound relative to DTG) against P142H", "setting": "HIV-1 IN mutant P142H; EC50 compound / EC50 DTG", "result": 159.9}, {"measurement": "EC50", "setting": "HIV-1 IN mutant P142H; Human immunodeficiency virus 1, read-out: EC50 values P142H", "result": "448 ± 35.8", "unit": "nM"}, {"measurement": "ratio of the EC50s (our compound relative to DTG) against P142S", "setting": "HIV-1 IN mutant P142S; EC50 compound / EC50 DTG", "result": 156.4}, {"measurement": "EC50", "setting": "HIV-1 IN mutant P142S; Human immunodeficiency virus 1, read-out: EC50 values P142S", "result": "344 ± 26.9", "unit": "nM"}, {"measurement": "ratio of the EC50s (our compound relative to DTG) against N117H", "setting": "HIV-1 IN mutant N117H; EC50 compound / EC50 DTG", "result": 207.3}, {"measurement": "EC50", "setting": "HIV-1 IN mutant N117H; Human immunodeficiency virus 1, read-out: EC50 values N117H", "result": 497, "unit": "nM"}, {"measurement": "FC N117H", "setting": "HIV-1 IN mutant N117H; [2]", "result": 1.9}, {"measurement": "ratio of the EC50s (our compound relative to DTG) against S230R", "setting": "HIV-1 IN mutant S230R; EC50 compound / EC50 DTG", "result": 134.0}, {"measurement": "EC50", "setting": "HIV-1 IN mutant S230R; Human immunodeficiency virus 1, read-out: EC50 values S230R", "result": "616 ± 79.8", "unit": "nM"}, {"measurement": "FC S230R", "setting": "HIV-1 IN mutant S230R; [2]", "result": 2.3}, {"measurement": "ratio of the EC50s (our compound relative to DTG) against N117A", "setting": "HIV-1 IN mutant N117A; EC50 compound / EC50 DTG", "result": 319.0}, {"measurement": "EC50", "setting": "HIV-1 IN mutant N117A; Human immunodeficiency virus 1, read-out: EC50 values N117A", "result": 160, "unit": "nM"}, {"measurement": "FC N117A", "setting": "HIV-1 IN mutant N117A; [2]", "result": 0.6}, {"measurement": "ratio of the EC50s (our compound relative to DTG) against Y143C", "setting": "HIV-1 IN mutant Y143C; EC50 compound / EC50 DTG", "result": 308.4}, {"measurement": "EC50", "setting": "HIV-1 IN mutant Y143C; Human immunodeficiency virus 1, read-out: EC50 values Y143C, single round infection, n = 4", "result": "432 ± 75.3", "unit": "nM"}, {"measurement": "FC Y143C", "setting": "HIV-1 IN mutant Y143C; [2]", "result": 1.6}, {"measurement": "ratio of the EC50s (our compound relative to DTG) against G140S/Q148H", "setting": "[1]; EC50 compound / EC50 DTG", "result": 71.1}, {"measurement": "EC50", "setting": "[1]; Human immunodeficiency virus 1, read-out: EC50 values G140S/Q148H", "result": "412 ± 120", "unit": "nM"}, {"measurement": "FC G140S/Q148H", "setting": "[1]; [2]", "result": 1.5}, {"measurement": "ratio of the EC50s (our compound relative to DTG) against N155H", "setting": "HIV-1 IN mutant N155H; EC50 compound / EC50 DTG", "result": 38.8}, {"measurement": "EC50", "setting": "HIV-1 IN mutant N155H; Human immunodeficiency virus 1, read-out: EC50 values N155H", "result": "140 ± 4.9", "unit": "nM"}, {"measurement": "FC N155H", "setting": "HIV-1 IN mutant N155H; [2]", "result": 0.5}, {"measurement": "ratio of the EC50s (our compound relative to DTG) against R231G", "setting": "HIV-1 IN mutant R231G; EC50 compound / EC50 DTG", "result": 133.8}, {"measurement": "EC50", "setting": "HIV-1 IN mutant R231G; Human immunodeficiency virus 1, read-out: EC50 values R231G", "result": "187 ± 17", "unit": "nM"}, {"measurement": "FC R231G", "setting": "HIV-1 IN mutant R231G; [2]", "result": 0.7}, {"measurement": "ratio of the EC50s (our compound relative to DTG) against Y143H", "setting": "HIV-1 IN mutant Y143H; EC50 compound / EC50 DTG", "result": 172.0}, {"measurement": "EC50", "setting": "HIV-1 IN mutant Y143H; Human immunodeficiency virus 1, read-out: EC50 values Y143H, single round infection, n = 4", "result": "378 ± 38.9", "unit": "nM"}, {"measurement": "FC Y143H", "setting": "HIV-1 IN mutant Y143H; [2]", "result": 1.4}, {"measurement": "ratio of the EC50s (our compound relative to DTG) against G118R", "setting": "HIV-1 IN mutant G118R; EC50 compound / EC50 DTG", "result": 88.3}, {"measurement": "EC50", "setting": "HIV-1 IN mutant G118R; Human immunodeficiency virus 1, read-out: EC50 values G118R", "result": "1150 ± 270", "unit": "nM"}, {"measurement": "FC G118R", "setting": "HIV-1 IN mutant G118R; [2]", "result": 4.3}]}]}
